Results published in ChEMBL document CHEMBL4402546, “Urea Derivatives in Modern Drug Discovery and Medicinal Chemistry” (J Med Chem, 2020).
One block for each compound: values may come before it.

What was measured:
[1] = Half life in schizophrenic patient at 1.5 to 12.5 mg/day; assay type: ADME; conditions: human, in vivo
[2] = molecular target: DNA gyrase subunit B (Escherichia coli, UniProt P0AES6); test: Inhibition of Escherichia coli DNA gyrase B incubated for 60 mins by malachite green dye based spectrometric analysis
[3] = Inhibition of Escherichia coli DNA topoisomerase 4 incubated for 60 mins by malachite green dye based spectrometric analysis
[4] = tested on: Plasmodium berghei; test: Antiparasitic activity against blood stage Plasmodium berghei ANKA infected in ARC mouse assessed as suppression of parasitemia at 32 mg/kg, sc administered twice daily with 6 hrs apart for 4 consecutive days by Giemsa staining based microscopic analysis relative to control
[5] = tested on: Plasmodium falciparum; test: Antimalarial activity against Plasmodium falciparum Dd2 incubated for 48 hrs by [3H]-hypoxanthine incorporation assay; assay type: functional, organism-based
[6] = tested on: Plasmodium falciparum; test: Antimalarial activity against Plasmodium falciparum 3D7 incubated for 48 hrs by [3H]-hypoxanthine incorporation assay; assay type: functional, organism-based
[7] = molecular target: RAF proto-oncogene serine/threonine-protein kinase (Homo sapiens, UniProt P04049); test: Inhibition of c-RAF (unknown origin)
Sequence of RAF proto-oncogene serine/threonine-protein kinase (P04049 whole entry): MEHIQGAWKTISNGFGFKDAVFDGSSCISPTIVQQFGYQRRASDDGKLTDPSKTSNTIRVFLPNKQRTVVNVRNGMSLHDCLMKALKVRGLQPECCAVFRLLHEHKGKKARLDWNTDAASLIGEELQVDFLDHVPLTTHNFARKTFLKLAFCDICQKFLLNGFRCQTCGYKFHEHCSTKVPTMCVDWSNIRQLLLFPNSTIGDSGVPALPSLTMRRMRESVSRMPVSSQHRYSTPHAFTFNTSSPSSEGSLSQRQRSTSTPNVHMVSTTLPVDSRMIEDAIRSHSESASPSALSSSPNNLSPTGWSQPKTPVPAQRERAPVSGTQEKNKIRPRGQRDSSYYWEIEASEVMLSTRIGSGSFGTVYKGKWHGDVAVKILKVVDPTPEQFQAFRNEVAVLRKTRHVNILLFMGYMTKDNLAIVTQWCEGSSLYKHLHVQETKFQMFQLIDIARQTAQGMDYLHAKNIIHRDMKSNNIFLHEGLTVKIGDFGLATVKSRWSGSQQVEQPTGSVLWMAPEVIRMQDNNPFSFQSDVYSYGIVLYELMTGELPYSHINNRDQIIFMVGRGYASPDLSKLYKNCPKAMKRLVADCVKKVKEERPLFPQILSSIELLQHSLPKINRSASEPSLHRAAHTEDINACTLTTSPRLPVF

[8] = molecular target: Serine/threonine-protein kinase B-raf (Homo sapiens, UniProt P15056, V600E); test: Inhibition of BRAF V600E mutant (unknown origin)
Sequence of Serine/threonine-protein kinase B-raf (P15056 2-766 V600E limits assumed): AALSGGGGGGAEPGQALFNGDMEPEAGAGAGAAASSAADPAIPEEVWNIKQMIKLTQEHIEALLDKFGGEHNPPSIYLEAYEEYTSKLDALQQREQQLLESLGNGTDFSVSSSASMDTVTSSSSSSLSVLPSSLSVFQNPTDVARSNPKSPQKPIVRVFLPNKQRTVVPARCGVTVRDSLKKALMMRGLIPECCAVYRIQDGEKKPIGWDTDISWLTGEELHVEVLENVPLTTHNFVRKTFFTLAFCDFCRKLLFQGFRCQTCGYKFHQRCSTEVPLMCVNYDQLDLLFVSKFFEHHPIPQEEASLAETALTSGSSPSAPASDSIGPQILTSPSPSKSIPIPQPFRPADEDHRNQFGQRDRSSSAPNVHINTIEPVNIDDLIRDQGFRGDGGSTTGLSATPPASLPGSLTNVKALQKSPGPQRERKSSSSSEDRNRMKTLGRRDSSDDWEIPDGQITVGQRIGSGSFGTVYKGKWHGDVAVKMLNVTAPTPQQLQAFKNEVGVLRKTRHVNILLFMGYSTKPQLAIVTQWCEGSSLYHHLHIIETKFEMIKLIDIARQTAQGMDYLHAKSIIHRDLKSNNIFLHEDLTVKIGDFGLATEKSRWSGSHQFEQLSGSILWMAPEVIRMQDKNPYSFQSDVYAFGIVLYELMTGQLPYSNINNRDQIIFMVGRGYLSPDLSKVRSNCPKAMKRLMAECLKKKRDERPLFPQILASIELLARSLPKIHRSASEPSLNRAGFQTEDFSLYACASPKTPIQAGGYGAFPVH

[9] = molecular target: Protease (Human immunodeficiency virus 1, UniProt Q9YQ12); test: Inhibition of HIV-1 protease by spectrofluorometric assay
Sequence of Protease (Q9YQ12 whole entry): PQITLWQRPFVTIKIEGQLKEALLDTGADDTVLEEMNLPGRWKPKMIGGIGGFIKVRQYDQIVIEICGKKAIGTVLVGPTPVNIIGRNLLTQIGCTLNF

[10] = molecular target: Metabotropic glutamate receptor 7 (Homo sapiens, UniProt Q14831); test: Inhibition of mGluR7 (unknown origin)
[11] = molecular target: Metabotropic glutamate receptor 2 (Homo sapiens, UniProt Q14416); test: Inhibition of mGluR2 (unknown origin)
[12] = molecular target: Metabotropic glutamate receptor 5 (Rattus norvegicus, UniProt P31424); test: Inhibition of rat mGluR5 expressed in HEK293A cells preincubated for 140 secs followed by EC20 glutamate stimulation for 74 secs and subsequent EC80 glutamate addition and measured up to 40 secs by Fluo-4-AM dye based fluorescence assay; assay type: cell-based
Sequence of Metabotropic glutamate receptor 5 (P31424 whole entry): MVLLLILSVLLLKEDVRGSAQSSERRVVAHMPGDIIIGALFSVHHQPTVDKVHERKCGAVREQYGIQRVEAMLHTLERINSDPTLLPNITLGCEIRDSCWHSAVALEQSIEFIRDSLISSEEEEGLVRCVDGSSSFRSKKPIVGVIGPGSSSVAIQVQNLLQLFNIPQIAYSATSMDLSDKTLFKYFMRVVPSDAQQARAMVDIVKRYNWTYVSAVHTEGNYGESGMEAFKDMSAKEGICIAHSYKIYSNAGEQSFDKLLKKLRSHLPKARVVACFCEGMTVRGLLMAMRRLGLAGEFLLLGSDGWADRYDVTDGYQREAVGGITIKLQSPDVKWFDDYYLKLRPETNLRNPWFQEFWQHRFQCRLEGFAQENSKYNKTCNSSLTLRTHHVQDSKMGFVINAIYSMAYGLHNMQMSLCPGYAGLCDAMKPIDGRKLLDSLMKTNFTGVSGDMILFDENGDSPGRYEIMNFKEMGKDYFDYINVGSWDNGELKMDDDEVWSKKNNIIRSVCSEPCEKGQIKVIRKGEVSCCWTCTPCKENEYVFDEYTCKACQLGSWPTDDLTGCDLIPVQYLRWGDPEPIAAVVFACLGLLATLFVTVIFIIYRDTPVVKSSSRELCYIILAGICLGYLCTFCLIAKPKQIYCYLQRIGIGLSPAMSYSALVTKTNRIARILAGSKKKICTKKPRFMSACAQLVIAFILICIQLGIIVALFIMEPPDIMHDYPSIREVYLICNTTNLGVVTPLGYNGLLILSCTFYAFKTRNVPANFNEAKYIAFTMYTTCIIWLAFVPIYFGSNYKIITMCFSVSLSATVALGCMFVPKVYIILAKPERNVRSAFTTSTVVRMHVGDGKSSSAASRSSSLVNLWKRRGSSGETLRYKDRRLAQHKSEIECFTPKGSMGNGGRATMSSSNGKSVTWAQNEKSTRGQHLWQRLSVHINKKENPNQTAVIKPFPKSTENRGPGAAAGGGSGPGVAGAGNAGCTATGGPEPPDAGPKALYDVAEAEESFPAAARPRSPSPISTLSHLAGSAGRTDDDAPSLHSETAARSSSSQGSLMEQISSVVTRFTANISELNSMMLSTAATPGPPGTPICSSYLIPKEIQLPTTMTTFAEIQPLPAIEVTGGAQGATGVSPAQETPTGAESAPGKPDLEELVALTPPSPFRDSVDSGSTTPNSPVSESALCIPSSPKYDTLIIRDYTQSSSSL

[13] = molecular target: Metabotropic glutamate receptor 3 (Homo sapiens, UniProt Q14832); test: Inhibition of mGluR3 (unknown origin)
Sequence of Metabotropic glutamate receptor 3 (Q14832 whole entry): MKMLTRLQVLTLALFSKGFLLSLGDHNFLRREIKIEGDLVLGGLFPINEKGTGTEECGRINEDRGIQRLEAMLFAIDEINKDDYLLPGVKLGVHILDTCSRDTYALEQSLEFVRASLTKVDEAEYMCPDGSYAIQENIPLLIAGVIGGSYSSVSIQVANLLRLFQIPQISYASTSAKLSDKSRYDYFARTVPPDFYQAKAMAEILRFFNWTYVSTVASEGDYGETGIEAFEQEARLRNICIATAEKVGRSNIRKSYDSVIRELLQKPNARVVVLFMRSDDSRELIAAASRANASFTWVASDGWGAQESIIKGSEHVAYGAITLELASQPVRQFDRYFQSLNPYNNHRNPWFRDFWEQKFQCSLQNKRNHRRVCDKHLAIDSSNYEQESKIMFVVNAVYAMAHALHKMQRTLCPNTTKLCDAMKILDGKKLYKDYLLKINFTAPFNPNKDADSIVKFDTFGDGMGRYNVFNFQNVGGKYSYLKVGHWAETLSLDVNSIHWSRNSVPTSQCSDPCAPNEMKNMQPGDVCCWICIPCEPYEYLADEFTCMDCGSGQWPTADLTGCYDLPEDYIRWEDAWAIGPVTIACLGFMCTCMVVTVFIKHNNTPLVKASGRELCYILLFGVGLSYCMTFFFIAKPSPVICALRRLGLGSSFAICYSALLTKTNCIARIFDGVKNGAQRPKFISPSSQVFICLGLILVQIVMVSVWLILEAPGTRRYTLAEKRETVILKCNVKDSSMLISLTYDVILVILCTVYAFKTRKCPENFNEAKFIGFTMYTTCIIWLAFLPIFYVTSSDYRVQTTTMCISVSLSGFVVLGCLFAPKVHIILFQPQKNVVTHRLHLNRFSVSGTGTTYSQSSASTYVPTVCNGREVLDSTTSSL

[14] = molecular target: Metabotropic glutamate receptor 4 (Homo sapiens, UniProt Q14833); test: Inhibition of mGluR4 (unknown origin)
[15] = molecular target: Metabotropic glutamate receptor 1 (Homo sapiens, UniProt Q13255); test: Inhibition of mGluR1 (unknown origin)
[16] = molecular target: Metabotropic glutamate receptor 8 (Homo sapiens, UniProt O00222); test: Inhibition of mGluR8 (unknown origin)
Sequence of Metabotropic glutamate receptor 8 (O00222 whole entry): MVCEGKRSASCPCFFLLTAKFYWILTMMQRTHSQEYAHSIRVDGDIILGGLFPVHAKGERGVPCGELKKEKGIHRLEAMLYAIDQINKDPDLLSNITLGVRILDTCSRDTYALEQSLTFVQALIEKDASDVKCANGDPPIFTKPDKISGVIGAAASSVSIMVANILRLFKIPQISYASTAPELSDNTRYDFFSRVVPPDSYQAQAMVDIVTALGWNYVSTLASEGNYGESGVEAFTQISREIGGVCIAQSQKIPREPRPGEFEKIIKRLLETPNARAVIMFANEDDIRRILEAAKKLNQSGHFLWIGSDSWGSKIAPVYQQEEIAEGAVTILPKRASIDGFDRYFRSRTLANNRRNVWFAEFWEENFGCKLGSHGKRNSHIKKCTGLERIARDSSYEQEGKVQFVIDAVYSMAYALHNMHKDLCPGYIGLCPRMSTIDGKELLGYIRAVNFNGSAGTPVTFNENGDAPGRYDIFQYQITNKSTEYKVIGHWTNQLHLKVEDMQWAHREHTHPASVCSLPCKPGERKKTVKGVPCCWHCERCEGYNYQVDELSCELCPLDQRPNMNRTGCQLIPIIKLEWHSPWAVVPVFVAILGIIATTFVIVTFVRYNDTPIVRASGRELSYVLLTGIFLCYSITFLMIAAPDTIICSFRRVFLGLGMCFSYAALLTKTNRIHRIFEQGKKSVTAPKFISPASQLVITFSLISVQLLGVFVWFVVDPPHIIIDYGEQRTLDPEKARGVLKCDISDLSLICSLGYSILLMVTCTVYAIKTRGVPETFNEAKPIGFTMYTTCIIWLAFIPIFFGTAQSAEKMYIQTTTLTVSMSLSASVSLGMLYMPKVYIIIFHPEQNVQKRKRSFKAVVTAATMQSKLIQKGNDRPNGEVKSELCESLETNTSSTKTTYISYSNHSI

[17] = tested on: HT-29; test: Antiproliferative activity against human HT-29 cells after 72 hrs by CCK8 assay; assay type: functional, cell-based; conditions: HT-29, 72 h
[18] = tested on: LoVo; test: Antiproliferative activity against human LoVo cells after 72 hrs by CCK8 assay; assay type: functional, cell-based
[19] = Half life in plasma (unknown origin); assay type: ADME, cell-free

IC50 [2]: < 199 nM
IC50 [3]: < 0.1 µg/mL
SMILES: CCNC(=O)Nc1nc2cc(-c3cnc(N4CCC(C(=O)O)CC4)nc3)cc(-c3ccccn3)c2s1

IC50 [7]: 61 nM
IC50 [8]: 316 nM
SMILES: CNC(=O)c1cc(Oc2cccc3nc(NC(=O)Nc4ccc(Cl)c(C(F)(F)F)c4)ccc23)ccn1

IC50 [9]: 6.3 nM
SMILES: CC(C)CN(C[C@@H](O)[C@H](Cc1ccccc1)NC(=O)[C@H](CC(N)=O)NC(=O)c1ccc2ccccc2n1)C(=O)NC(C)(C)C

half-life [19]: 1.2 h
SMILES: CC(C)c1nc(CN(C)C(=O)N[C@H](C(=O)N[C@@H](Cc2ccccc2)C[C@H](O)[C@H](Cc2ccccc2)NC(=O)OCc2cncs2)C(C)C)cs1 [RITONAVIR]

The remaining lines, values behind:

SMILES: CN(C)C(=O)N[C@H]1CC[C@H](CCN2CCN(c3cccc(Cl)c3Cl)CC2)CC1 [CARIPRAZINE]
half-life [1]: 48 to 120 h

SMILES: CCCCNC(=O)NCCc1c[nH]c2c1C(=O)C1=C(NC=CS1(=O)=O)C2=O
Activity [4]: 26%
IC50 [5]: 525 nM
IC50 [6]: 644 nM

SMILES: N#Cc1cc(F)cc(NC(=O)Nc2ccc(Cl)cn2)c1
IC50 [10]: > 30000 nM
IC50 [11]: > 30000 nM
IC50 [12]: 13 nM
IC50 [13]: > 30000 nM
IC50 [14]: > 30000 nM
IC50 [15]: > 30000 nM
IC50 [16]: > 30000 nM

SMILES: N#Cc1cc(O)ccc1-c1ccc(NC(=O)Nc2ccc(Cl)c(C(F)(F)F)c2)cc1
IC50 [17]: 1900 nM
IC50 [18]: 1500 nM
